Measurements reported in patent US9695129B2, “Parasiticidal compositions comprising benzimidazole derivatives, methods and uses thereof” (MERIAL INC., priority 2012, dated 2017).
Where two headings read alike, the source gives them in different places.

Columns and labels:
Design in all cases: species or system Fasciola hepatica
adult F. hepatica [1] = assay: In vitro test on adult F. hepatica (viability scale, effective concentration); conditions: Fasciola hepatica, read-out: Effective in vitro concentration
Method: Representative compounds of formula (I), formula (II), and formula (III) were tested in vitro against F. hepatica as follows. Adult F. hepatica (fluke) were collected from infected bovine livers obtained from a local abattoir (Basel, Switzerland). The worms were quickly washed with 0.9% (w/v) NaCl and placed in 6 or 12-well plates (Costar). Culture medium in each well contained RPMI 1640 (Gibco) at 37° C., which was supplemented with antibiotics (50 μg/ml streptomycin and 50 IU/ml penicillin; Gibco) and 80 μg/ml of a haemin solution. The haemin solution was prepared as follows: 5 mg haemin was dissolved in 1 ml of 0.1M aqueous solution of NaOH, and 3.95 ml of PBS (pH=7.4) and 0.05 ml of 1M HCl were added to adjust the pH to 7.1-7.4 (Keiser and Morson, 2008). Cultures were kept at 37° C. in an atmosphere of 5% CO2. To monitor the temporal effects of test compounds in vitro, 3 flukes were incubated for 72 h in the presence of 50 or 100 μg/ml of each test compound. At 24, 48, and 72 h, worms were examined using a dissecting microscope. For the adult worms, a viability scale ranging from 4 (normal movements) to 1 (death; no movement observed for two min using a microscope) was used.
(§1) Table 1 lists representative compounds of formula (I) of the present invention and their effective in vitro concentrations against F. hepatica. All compounds were tested in vitro on the adult stage of F. hepatica as described above. Each data point refers to at least two independent experiments. For Table 1, R2 is H, R4 is Cl and R5 is H.
as §1, with “2” for “1”, “(II)” for “(I)”, “2 compounds, the 2-position of the benzimidazole ring” for “1, R2”, “methylthio, R6” for “H, R4”, “H” for “Cl”, “R9” for “R5”
as §1, with “3” for “1”, “(III)” for “(I)”, “3, the 2-position of the benzimidazole ring” for “1, R2”, “trifluoromethylthio, R10” for “H, R4”, “H” for “Cl”, “R13” for “R5”

[2] = tested on: F. hepatica resistant to triclabendazole (Oberon isolate of Australia); assay: In vitro test against triclabendazole-resistant F. hepatica (Oberon isolate), movement score; conditions: for Fluke activity score: scale 3 (very active) to 0 (death)
adult F. hepatica [3] = assay: In vivo test in female Wistar rats harboring adult F. hepatica; conditions: single oral dose 100 mg/kg, one week after dosing; for Number of living worms Ø = average: control 6.3; for Worm burden reduction %: vs untreated control
Method: Additionally, five compounds were tested in vivo in female Wistar rats against an untreated control. Rats were kept in groups of five in type-4 Makrolon cages under environmentally controlled conditions (temperature, 22° C.; humidity, 70%; light/dark cycle, 12/12 h) with free access to water and rodent food. F. hepatica metacercariae (Pacific Northwest wild strain) were purchased from Baldwin Aquatics (Monmouth, Oreg.). After one week of adaptation, each rat was infected by oral gavage with approximately 25 metacercariae.
Three rats harboring adult F. hepatica (>8 weeks postinfection) were used to test each of five compounds. The rats were given a single oral dose of 100 mg/kg with each of test compounds 273, 274, 282, 290 and 303. Untreated rats (n=3) served as controls. Dosing formulations consisted of 300 ul Tween 80:ethanol (1:1) and 2.7 ml water. One week after dosing the animals were euthanized and live worms recovered from excised bile ducts.

[4] = Table 1, formula (I), adult flukes incubated up to 72 h, at least two independent experiments

Row | Compound | minimal effective concentration (adult F. hepatica [1]; 72 h) | Fluke activity score ([2]; 20 μg/ml, 0 h) | Fluke activity score ([2]; 20 μg/ml, 24 h) | Fluke activity score ([2]; 20 μg/ml, 48 h) | Fluke activity score ([2]; 20 μg/ml, 72 h) | No. of rats cured/No. of rats investigated (adult F. hepatica [3]) | Number of living worms Ø = average (adult F. hepatica [3]) | Worm burden reduction % (adult F. hepatica [3]) | also measured
1 | FC(F)(F)c1nc2cc(Cl)c(-c3ccc(Cl)cc3)cc2[nH]1 [Compound 130, 6-chloro-5-(4-chlorophenyl)-2-trifluoromethylbenzimidazole] | 2.5 µg/mL | 3 | 0.25 | 0 | 0 | – | – | – | –
2 | FC(F)(F)C(F)(F)C(F)(F)c1nc2cc(Cl)c(Oc3cccc(Cl)c3Cl)cc2[nH]1 [Compound 140, 6-chloro-5-(2,3-dichlorophenoxy)-2-heptafluoropropylbenzimidazole] | 5 µg/mL | 3 | 0.5 | 0 | 0 | – | – | – | –
3 | FC(F)(F)C(F)(F)C(F)(F)c1nc2cc(Cl)c(Oc3ccc(Cl)cc3Cl)cc2[nH]1 [Compound 273, 5-chloro-6-(2,4-dichlorophenoxy)-2-(heptafluoropropyl)-1H-1,3-benzodiazole] | 5 µg/mL | 3 | 0 | 0 | 0 | 1/2 | 1.5 | 76.2% | Fluke activity score ([2]; 10 μg/ml, 0 h): 3; Fluke activity score ([2]; 10 μg/ml, 24 h): 0; Fluke activity score ([2]; 10 μg/ml, 48 h): 0; Fluke activity score ([2]; 10 μg/ml, 72 h): 0; Efficacy against triclabendazole-resistant flukes, in words ([2]; even at 10 μg/ml, compared with #114, #130, #140 and 50 μg/ml triclabendazole/sulfoxide): particularly efficacious
4 | FC(F)(F)C(F)(F)C(F)(F)c1nc2cc(Cl)c(-c3ccc(Cl)cc3)cc2[nH]1 [Compound 274, 5-chloro-6-(4-chlorophenyl)-2-(heptafluoropropyl)-1H-1,3-benzodiazole] | 5 µg/mL | – | – | – | – | 1/3 | 2.3 | – | –
5 | Fc1ccc(-c2cc3[nH]c(C(F)(F)C(F)(F)C(F)(F)F)nc3cc2Cl)cc1 [Compound 282, 5-chloro-6-(4-fluorophenyl)-2-(heptafluoropropyl)-1H-1,3-benzodiazole] | < 2.5 µg/mL | – | – | – | – | 2/3 | 2 | – | –
6 | FC(F)(F)c1ccc(-c2cc3[nH]c(C(F)(F)C(F)(F)C(F)(F)F)nc3cc2Cl)cc1 [Compound 290, 5-chloro-2-(heptafluoropropyl)-6-[4-(trifluoromethyl)phenyl]-1H-1,3-benzodiazole] | – | – | – | – | – | 1/3 | 3.3 | 47.6% | minimal effective concentration (adult F. hepatica [1]; [4]): 50 µg/mL
7 | FC(F)(F)c1ccc(-c2cc3[nH]c(C(F)(F)C(F)(F)C(F)(F)F)nc3cc2Cl)c(C(F)(F)F)c1 [Compound 303, 6-[2,4-bis(trifluoromethyl)phenyl]-5-chloro-2-(heptafluoropropyl)-1H-1,3-benzodiazole] | – | – | – | – | – | 1/3 | 1.3 | 79.4% | minimal effective concentration (adult F. hepatica [1]; [4]): 20 µg/mL
8 | C[S+]([O-])c1nc2cc(Oc3cccc(Cl)c3Cl)c(Cl)cc2[nH]1 (centres unmarked) [TBZ-SOX, triclabendazole/sulfoxide, reference compound] | – | – | – | – | – | – | – | – | Fluke activity score ([2]; 50 μg/ml, 0 h): 3; Fluke activity score ([2]; 50 μg/ml, 24 h): 3; Fluke activity score ([2]; 50 μg/ml, 48 h): 2.5; Fluke activity score ([2]; 50 μg/ml, 72 h): 2
